Results on 25 molecules are retold here after patent US5476782A, “DNA encoding a human 5-HT1E receptor and uses thereof” (Synaptic Pharmaceutical Corporation, priority 1995, dated 1995).

In experiment [1] the target is T1, human 5-HT1E receptor (Homo sapiens, UniProt P28566). The experiment is described as follows: [3H]5-HT displacement binding, membranes of Ltk- cells transfected with cloned 5-HT1E receptor. Conditions: for affinity (in words): displacement of [3H]5-HT specific binding; for decrease of affinity relative to serotonin: substitution or removal of the 5-hydroxy group. On the set-up: The entire coding region of clone hp75d was cloned into the eukaryotic expression vector pcEXV-3; expressed in transfected cells; host or cells: Ltk- mouse fibroblast cells (line 5-HT1E-7, ATCC CRL 10913, plasmid pcEXV-hp75d).
Procedure: Membranes were prepared from transfected Ltk^- cells which were grown to 100% confluency. The cells were washed twice with phosphate-buffered saline, scraped from the culture dishes into 5 ml of ice-cold phosphate-buffered saline, and centrifuged at 200×g for 5 min at 4° C. The pellet was resuspended in 2.5 ml of ice-cold Tris buffer (20 mM Tris -HCl, pH 7.4 at 23° C., 5 mM EDTA) and homogenized by a Wheaton tissue grinder. The lysate was subsequently centrifuged at 200×g for 5 min at 4° C. to pellet large fragments which were discarded. The supernatant was collected and centrifuged at 40,000× g for 20 min at 4° C. The pellet resulting from this centrifugation was washed once in ice-cold Tris buffer and finally resuspended in a final buffer containing 50 mM Tris-HCl and 0.5 mM EDTA, pH 7.4 at 23° C. Membrane preparations were kept on ice and utilized within two hours for the radioligand binding assays.
The binding profile of drugs in competition experiments was accomplished using 10-12 concentrations of compound. Incubation times were 30 min for both saturation and displacement studies based upon initial investigations which determined equilibrium binding conditions. […] Binding was initiated by the addition of 50 μl membrane homogenates (10-20 μg). The reaction was terminated by rapid filtration through presoaked (0.5% polyethyleneimine) filters using 48R Cell Brandel Harvester (Gaithersburg, Md.). Subsequently, filters were washed for 5 seconds with ice cold buffer (50 mM Tris HCL, pH 7.4 at 4° C.), dried and placed into vials containing 2.5 ml of Readi-Safe (Beckman, Fullerton, Calif.) and radioactivity was measured using a Beckman LS 5000TA liquid scintillation counter. […] Binding data was analyzed by computer-assisted nonlinear regression analysis (Accufit and Accucomp, Lundon Software, Chagrin Falls, Ohio). […] All experiments were performed in triplicate.

The test system of a further experiment is 5-HT1E binding site. Conditions: native site, human cortical tissue; cited from earlier work.
In experiment [2] the target is T1, human 5-HT1E receptor. Conditions: forskolin-stimulated cAMP.
Procedure: Transfected Y1 cells (expression level=688 fmol/mg of protein) were incubated in DMEM, 5 mM theophylline, 10 mM Hepes (4-[2-Hydroxyethyl]-1-piperazineethanesulfonic acid), 10 μM pargyline, for 20 minutes at 37° C., 5% CO2. […] Subsequently, the cells were incubated for an additional 10 minutes at 37° C., 5% CO2. The media was aspirated and the reaction terminated by the addition of 100 mM HCl. The plates were stored at 4° C. for 15 minutes and centrifuged for 5 minutes (500×g at 4° C.) to pellet cellular debris. Aliquots of the supernatant fraction were then stored at -20° C. prior to assessment of cAMP formation by radioimmunoassay (cAMP Radioimmunoassay kit, Advanced Magnetics, Cambridge, Mass.).
Experiment [3] has as its target human 5-HT1E receptor. As to the kind of experiment: Inhibition of [3H]5-HT specific binding by Gpp(NH)p (G-protein coupling). Conditions: inhibition of specific binding of [3H]5-HT.
Setting [4] is: displacement of 4.5-5.5 nM [3H]5-HT, 37° C., 30 min, Table 1, read-out: Ki.

Where two headings read alike, the source gives them in different places. Where only a bound is given, the exact number is not on record here.

T1 sequence (P28566 whole entry): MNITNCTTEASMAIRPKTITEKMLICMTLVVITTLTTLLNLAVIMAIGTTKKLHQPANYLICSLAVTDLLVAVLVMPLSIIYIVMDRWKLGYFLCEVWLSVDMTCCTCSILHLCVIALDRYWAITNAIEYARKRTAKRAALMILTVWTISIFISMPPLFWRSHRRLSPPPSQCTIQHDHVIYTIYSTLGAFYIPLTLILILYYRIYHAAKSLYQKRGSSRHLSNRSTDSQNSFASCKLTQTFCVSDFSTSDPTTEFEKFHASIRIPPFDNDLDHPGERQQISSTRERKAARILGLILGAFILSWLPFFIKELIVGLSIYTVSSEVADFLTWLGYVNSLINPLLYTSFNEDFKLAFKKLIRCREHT

With `c1ccc2c(N3CCNCC3)cccc2c1` [1-Napthylpiperazine], the Ki came out at 0.207 ± 0.069 µM at human 5-HT1E receptor [1] (setting [4]) and 0.207 µM at human 5-HT1E receptor [1] (read-out: Ki values).

For `Cc1[nH]c2ccc(O)cc2c1CCN` [2-Methyl-5-HT], the Ki at human 5-HT1E receptor [1] (setting [4]) is 0.817 ± 0.203 µM.

For `NCCc1c[nH]c2ccc(C(N)=O)cc12` [5-CT, 5-carboxyamidotryptamine], the Ki at human 5-HT1E receptor [1] (setting [4]) was 7.88 ± 0.284 µM. On human 5-HT1E receptor [1], the “affinity (in words)” value was “low affinity” and the “decrease of affinity relative to serotonin” value was 300 fold. The “affinity (in words)” value with 5-HT1E binding site is listed as “low affinity”.

As for `NCCc1c[nH]c2ccc(O)cc12` [5-HT, 5-hydroxytryptamine], on human 5-HT1E receptor [2], the “maximum inhibition of cAMP production” value is recorded as 32%. Also, at human 5-HT1E receptor [1], the “affinity (in words)” value is “highest affinity”.

Turning to `COc1ccc2[nH]cc(CCN)c2c1` [5-Methoxytryptamine], the Ki on human 5-HT1E receptor [1] (setting [4]) was 3.15 ± 1.04 µM. Moreover, at human 5-HT1E receptor [1], the “decrease of affinity relative to serotonin” value is on record as 300 fold.

On to `CCCN(CCC)C1CCc2cccc(O)c2C1` (centres unmarked) [8-OH-DPAT], for which, at human 5-HT1E receptor [1] (setting [4]), the Ki is 3.33 ± 0.31 µM. In addition, the “affinity (in words)” value at human 5-HT1E receptor [1] is listed as “very poor affinity”.

On to `COc1cc(CC(C)N)c(OC)cc1I` (centres unmarked) [DOI], for which, at human 5-HT1E receptor [1] (setting [4]), the Ki is 2.97 ± 0.592 µM. The “affinity (in words)” value on human 5-HT1E receptor [1] is on record as “very poor affinity”.

As to `CCCN(CCC)CCc1c[nH]c2ccc(C(N)=O)cc12` [DP-5-CT], at human 5-HT1E receptor [1], the Ki was more than 10 µM.

In turn, `C[C@@H](CO)NC(=O)[C@@H]1C=C2c3cccc4[nH]cc(c34)C[C@H]2N(C)C1` [Ergonovine] registered a Ki on human 5-HT1E receptor [1] of 0.0877 ± 0.0076 µM.

Regarding `CN1C[C@H](C(=O)N[C@]2(C)O[C@@]3(O)[C@@H]4CCCN4C(=O)[C@H](Cc4ccccc4)N3C2=O)C=C2c3cccc4[nH]cc(c34)C[C@H]21` [Ergotamine], the Ki at human 5-HT1E receptor [1] (setting [4]) worked out at 0.599 ± 0.039 µM. Further, the “affinity (in words)” value with 5-HT1E binding site is on record as “low affinity”.

Turning to `Nc1nc2c(ncn2[C@@H]2O[C@H](COP(=O)(O)OP(=O)(O)NP(=O)(O)O)[C@@H](O)[C@H]2O)c(=O)[nH]1` [Gpp(NH)p], on human 5-HT1E receptor [3], the IC50 worked out at 1.89 ± 0.556 µM and the Imax is 26.4±5.6%.

As for `O=C(c1ccc(F)cc1)C1CCN(CCn2c(=O)[nH]c3ccccc3c2=O)CC1` [Ketanserin], the “affinity (in words)” value on human 5-HT1E receptor [1] is “very poor affinity”.

Regarding `Nc1ccc(CCN2CCN(c3cccc(C(F)(F)F)c3)CC2)cc1` [LY-165163 (PAPP)], at human 5-HT1E receptor [1], the Ki is more than 10 µM.

As to `CN1C[C@H](CO)C=C2c3cccc4[nH]cc(c34)C[C@H]21` [Lysergol], the Ki on human 5-HT1E receptor [1] (setting [4]) came to 0.0428 ± 0.0053 µM.

As for `CSc1ccc2c(c1)C(N1CCN(C)CC1)Cc1ccccc1S2` (centres unmarked) [Methiothepin], the Ki on human 5-HT1E receptor [1] (setting [4]) stood at 0.194 ± 0.004 µM; at human 5-HT1E receptor [1] (read-out: Ki values), 0.194 µM.

For `CC[C@@H](CO)NC(=O)[C@@H]1C=C2c3cccc4[nH]cc(c34)C[C@H]2N(C)C1` [Methylergonovine], at human 5-HT1E receptor [1] (setting [4]), the Ki came out at 0.0894 ± 0.0042 µM.

As for `CC[C@@H](CO)NC(=O)[C@@H]1C=C2c3cccc4c3c(cn4C)C[C@H]2N(C)C1` [Methysergide], the Ki on human 5-HT1E receptor [1] (setting [4]) came out at 0.228 ± 0.016 µM.

For `Cc1cc(C(C)(C)C)c(O)c(C)c1CC1=NCCN1` [Oxymetazoline], the Ki on human 5-HT1E receptor [1] (setting [4]) was determined as 0.419 ± 0.049 µM.

Regarding `CC(C)NCC(O)COc1cccc2[nH]ccc12` (centres unmarked) [Pindolol], at human 5-HT1E receptor [1], the “affinity (in words)” value is given as “very poor affinity”.

On human 5-HT1E receptor [1], `COC(=O)[C@H]1[C@H]2C[C@H]3c4[nH]c5ccccc5c4CCN3C[C@H]2CC[C@@H]1O` [Rauwolscine] had a Ki of 3.43 ± 0.102 µM.

`O=C(CCCN1CCC2(CC1)C(=O)NCN2c1ccccc1)c1ccc(F)cc1` [Spiperone]: the Ki on human 5-HT1E receptor [1] (setting [4]) came out at 5.05 ± 0.689 µM. In addition, the “affinity (in words)” value at human 5-HT1E receptor [1] was “very poor affinity”.

Turning to `FC(F)(F)c1cccc(N2CCNCC2)c1` [TFMPP], the Ki at human 5-HT1E receptor [1] (setting [4]) amounted to 6.29 ± 0.259 µM.

Turning to `NCCc1c[nH]c2ccccc12` [Tryptamine], at human 5-HT1E receptor [1] (setting [4]), the Ki stood at 2.56 ± 0.827 µM. At human 5-HT1E receptor [1], the “decrease of affinity relative to serotonin” value came out at 300 fold.

With `COC(=O)[C@@H]1[C@H]2C[C@H]3c4[nH]c5ccccc5c4CCN3C[C@@H]2CC[C@@H]1O` [Yohimbine], on human 5-HT1E receptor [1] (setting [4]), the Ki was 1.27 ± 0.233 µM.

In the case of `COc1cc(N)c(Cl)cc1C(=O)NC1CN2CCC1CC2` (centres unmarked) [Zacopride], the “affinity (in words)” value on human 5-HT1E receptor [1] is on record as “very poor affinity”.
